According to patent publication US9434711B2 (Janssen Pharmaceutica, NV, priority 2007, dated 2016):
pIC50: −log10 of the molar value.

Biological target: canine TRPM8 (Canis lupus familiaris, UniProt Q1A7N1)
Assay: In Vitro Canine TRPM8 Functional Assay (Ca2+ fluorescence, icilin activation)
Format: cell-based
Conditions: for pIC50: HEK293 cells stably expressing canine TRPM8, icilin activation, eight-point dose-response, read-out: IC50; for inhibition at 0.2 µM: compound at 0.2 μM, canine TRPM8, icilin activation, read-out: % Inh @ 0.2
Procedure, shortened: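 Canine TRPM8 stably expressed in HEK293; compound added 5 min before icilin challenge (~80% max response), with fluorescent Ca2+ signal tracked throughout.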

Chain of canine TRPM8 (Q1A7N1 1-1104): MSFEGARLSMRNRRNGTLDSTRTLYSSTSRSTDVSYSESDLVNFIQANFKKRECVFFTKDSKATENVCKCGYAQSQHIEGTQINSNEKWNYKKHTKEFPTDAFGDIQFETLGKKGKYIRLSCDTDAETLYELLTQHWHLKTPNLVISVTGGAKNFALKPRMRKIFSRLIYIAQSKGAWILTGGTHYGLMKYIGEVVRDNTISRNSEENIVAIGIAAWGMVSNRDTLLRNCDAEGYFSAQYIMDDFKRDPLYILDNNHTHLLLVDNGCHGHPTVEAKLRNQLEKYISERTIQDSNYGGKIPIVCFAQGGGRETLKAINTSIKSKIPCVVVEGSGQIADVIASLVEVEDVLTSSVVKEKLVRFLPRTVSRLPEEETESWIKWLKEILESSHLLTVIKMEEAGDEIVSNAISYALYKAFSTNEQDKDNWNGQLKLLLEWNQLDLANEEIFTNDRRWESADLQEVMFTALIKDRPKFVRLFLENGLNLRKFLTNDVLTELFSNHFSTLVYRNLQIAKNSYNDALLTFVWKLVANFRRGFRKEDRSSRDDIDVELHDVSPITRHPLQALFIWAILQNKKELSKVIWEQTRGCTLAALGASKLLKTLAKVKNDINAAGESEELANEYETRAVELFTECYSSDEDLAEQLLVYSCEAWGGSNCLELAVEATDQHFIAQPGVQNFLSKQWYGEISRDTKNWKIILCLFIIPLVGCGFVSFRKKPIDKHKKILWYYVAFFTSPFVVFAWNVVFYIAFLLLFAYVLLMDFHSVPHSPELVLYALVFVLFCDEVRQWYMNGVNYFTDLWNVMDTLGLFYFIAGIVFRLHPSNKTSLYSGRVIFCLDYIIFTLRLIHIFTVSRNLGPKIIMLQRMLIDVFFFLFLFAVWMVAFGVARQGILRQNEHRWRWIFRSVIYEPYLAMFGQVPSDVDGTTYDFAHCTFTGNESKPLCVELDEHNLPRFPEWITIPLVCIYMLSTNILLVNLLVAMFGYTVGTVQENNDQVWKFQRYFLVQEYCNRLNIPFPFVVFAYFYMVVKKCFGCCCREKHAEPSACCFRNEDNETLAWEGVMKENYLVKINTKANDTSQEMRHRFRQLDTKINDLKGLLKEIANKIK

Structure (SMILES)	pIC50	inhibition at 0.2 µM [%]
Nc1ccc(S(=O)(=O)N(CCCCC(F)(F)F)c2sc3ccccc3c2Br)cc1 [Compound 668, 4-Amino-N-(3-bromo-benzo[b]thiophen-2-yl)-N-(5,5,5-trifluoro-pentyl)-benzenesulfonamide]	8.30	103
Cc1c(N(Cc2ccc(F)c(C(F)(F)F)c2)S(=O)(=O)CC(F)(F)F)sc2ccccc12 [Compound 669, N-(4-Fluoro-3-trifluoromethyl-benzyl)-N-(3-methyl-benzo[b]thiophen-2-yl)-2,2,2-trifluoro-ethanesulfonamide]	7.29	96.4
Cc1c(N(CCC2CC2)S(=O)(=O)CC(F)(F)F)sc2ccccc12 [Compound 670, N-(2-Cyclopropyl-ethyl)-N-(3-methyl-benzo[b]thiophen-2-yl)-2,2,2-trifluoro-ethanesulfonamide]	7.41	99.1
Cc1c(N(CCC(F)(F)F)S(=O)(=O)CC(F)(F)F)sc2ccccc12 [Compound 671, N-(3-Methyl-benzo[b]thiophen-2-yl)-N-(3,3,3-trifluoro-propyl)-2,2,2-trifluoro-ethanesulfonamide]	7.46	100
Cc1c(N(CCCC(F)(F)F)S(=O)(=O)CC(F)(F)F)sc2ccccc12 [Compound 672, N-(3-Methyl-benzo[b]thiophen-2-yl)-N-(4,4,4-trifluoro-butyl)-2,2,2-trifluoro-ethanesulfonamide]	7.13	75.3
Cc1c(N(CCCCC(F)(F)F)S(=O)(=O)CC(F)(F)F)sc2ccccc12 [Compound 673, N-(3-Methyl-benzo[b]thiophen-2-yl)-N-(5,5,5-trifluoro-pentyl)-2,2,2-trifluoro-ethanesulfonamide]		94.4
COC(=O)c1ccc(S(=O)(=O)N(Cc2ccc(F)c(C(F)(F)F)c2)c2sc3ccccc3c2C2CC2)cc1 [Compound 674, N-(3-Cyclopropyl-benzo[b]thiophen-2-yl)-N-(4-fluoro-3-trifluoromethyl-benzyl)-4-carbomethoxy-benzenesulfonamide]	7.11	85.4
O=C(O)c1ccc(S(=O)(=O)N(Cc2ccc(F)c(C(F)(F)F)c2)c2sc3ccccc3c2C2CC2)cc1 [Compound 675, N-(3-Cyclopropyl-benzo[b]thiophen-2-yl)-N-(4-fluoro-3-trifluoromethyl-benzyl)-4-carboxy-benzenesulfonamide]	8.62	100
CS(=O)(=O)Nc1ccc(S(=O)(=O)N(CCC(F)(F)F)c2sc3ccccc3c2Cl)cc1 [Compound 676, N-(3-Chloro-benzo[b]thiophen-2-yl)-4-methanesulfonylamino-N-(3,3,3-trifluoro-propyl)-benzenesulfonamide]	7.59	102
CS(=O)(=O)Nc1ccc(S(=O)(=O)N(CCC(F)(F)F)c2sc3ccccc3c2Br)cc1 [Compound 677, N-(3-Bromo-benzo[b]thiophen-2-yl)-N-(3,3,3-trifluoro-propyl)-4-methanesulfonylamino-benzenesulfonamide]	7.61	101
CS(=O)(=O)Nc1ccc(S(=O)(=O)N(CCCCC(F)(F)F)c2cc3ccccc3s2)cc1 [Compound 678, N-(Benzo[b]thiophen-2-yl)-4-methanesulfonylamino-N-(5,5,5-trifluoro-pentyl)-benzenesulfonamide]		61
CS(=O)(=O)Nc1ccc(S(=O)(=O)N(CCCCC(F)(F)F)c2sc3ccccc3c2Cl)cc1 [Compound 679, N-(3-Chloro-benzo[b]thiophen-2-yl)-4-methanesulfonylamino-N-(5,5,5-trifluoro-pentyl)-benzenesulfonamide]	7.24	100
CS(=O)(=O)Nc1ccc(S(=O)(=O)N(CCCCC(F)(F)F)c2sc3ccccc3c2Br)cc1 [Compound 680, N-(3-Bromo-benzo[b]thiophen-2-yl)-4-methanesulfonylamino-N-(5,5,5-trifluoro-pentyl)-benzenesulfonamide]	7.25	96.2
CS(=O)(=O)Nc1c(Cl)cc(S(=O)(=O)N(CCC(F)(F)F)c2sc3ccccc3c2Cl)cc1Cl [Compound 681, 3,5-Dichloro-N-(3-chloro-benzo[b]thiophen-2-yl)-4-methanesulfonylamino-N-(3,3,3-trifluoro-propyl)-benzenesulfonamide]	7.17	93.3
CS(=O)(=O)Nc1c(Cl)cc(S(=O)(=O)N(CCCCC(F)(F)F)c2sc3ccccc3c2Cl)cc1Cl [Compound 682, 3,5-Dichloro-N-(3-chloro-benzo[b]thiophen-2-yl)-4-methanesulfonylamino-N-(5,5,5-trifluoro-pentyl)-benzenesulfonamide]	7.50	101
CS(=O)(=O)Nc1ccc(S(=O)(=O)N(CCC(F)(F)F)c2sc3ccccc3c2Br)cc1Br [Compound 683, 3-Bromo-N-(3-bromo-benzo[b]thiophen-2-yl)-4-methanesulfonylamino-N-(3,3,3-trifluoro-propyl)-benzenesulfonamide]	7.59	101

Structure (SMILES)	pIC50	inhibition at 0.2 µM [%]
O=c1[nH]c(-c2ccc(S(=O)(=O)N(CCC(F)(F)F)c3cc4ccccc4s3)cc2)ns1 [Compound 684, N-(Benzo[b]thiophen-2-yl)-N-(3,3,3-trifluoro-propyl)-4-(5-oxo-4,5-dihydro-[1,2,4]thiadiazol-3-yl)-benzenesulfonamide]	6.84	73.1
O=C(O)c1ccc(S(=O)(=O)N(CCCCC(F)(F)F)c2cc3ccccc3s2)c(F)c1 [Compound 685, N-(Benzo[b]thiophen-2-yl)-N-(5,5,5-trifluoro-pentyl)-2-fluoro-4-carboxy-benzenesulfonamide]	7.92	102
O=C(O)c1ccc(S(=O)(=O)N(Cc2ccc(F)c(C(F)(F)F)c2)c2cc3ccccc3s2)c(F)c1 [Compound 686, N-(Benzo[b]thiophen-2-yl)-N-(4-fluoro-3-trifluoromethyl-benzyl)-2-fluoro-4-carboxy-benzenesulfonamide]	8.33	105
O=c1[nH]c(-c2ccc(S(=O)(=O)N(CCCCC(F)(F)F)c3cc4ccccc4s3)cc2)ns1 [Compound 687, N-(Benzo[b]thiophen-2-yl)-N-(5,5,5-trifluoro-pentyl)-4-(5-oxo-4,5-dihydro-[1,2,4]thiadiazol-3-yl)-benzenesulfonamide]	7.24	74.5
CNc1ccc(S(=O)(=O)N(CCC2CC2)c2cc3ccccc3s2)cc1 [Compound 688, N-(Benzo[b]thiophen-2-yl)-N-(2-cyclopropyl-ethyl)-4-methylamino-benzenesulfonamide]	7.22	99
CN(C)c1ccc(S(=O)(=O)N(CCC2CC2)c2cc3ccccc3s2)cc1 [Compound 689, N-(Benzo[b]thiophen-2-yl)-N-(2-cyclopropyl-ethyl)-4-dimethylamino-benzenesulfonamide]	7.28	86
CNc1ccc(S(=O)(=O)N(CCC2CC2)c2sc3ccccc3c2Cl)cc1 [Compound 690, N-(3-Chloro-benzo[b]thiophen-2-yl)-N-(2-cyclopropyl-ethyl)-4-methylamino-benzenesulfonamide]	7.79	101
CNc1ccc(S(=O)(=O)N(CCC2CC2)c2sc3ccccc3c2Cl)cc1Cl [Compound 691, 3-Chloro-N-(3-chloro-benzo[b]thiophen-2-yl)-N-(2-cyclopropyl-ethyl)-4-methylamino-benzenesulfonamide]	7.80	102
CNc1ccc(S(=O)(=O)N(CCC2CC2)c2sc3ccccc3c2Br)cc1Br [Compound 692, 3-Bromo-N-(3-bromo-benzo[b]thiophen-2-yl)-N-(2-cyclopropyl-ethyl)-4-methylamino-benzenesulfonamide]	8.14	101
CNc1ccc(S(=O)(=O)N(CCC2CC2)c2sc3ccccc3c2Br)cc1 [Compound 693, N-(3-Bromo-benzo[b]thiophen-2-yl)-N-(2-cyclopropyl-ethyl)-4-methylamino-benzenesulfonamide]	7.60	103
O=C(Nc1ccc(S(=O)(=O)N(Cc2ccc(F)c(C(F)(F)F)c2)c2sc3ccccc3c2Br)cc1)C(F)(F)F [Compound 695, N-(3-Bromo-benzo[b]thiophen-2-yl)-N-(4-fluoro-3-trifluoromethyl-benzyl)-4-trifluoroacetamido-benzenesulfonamide]	7.77	101
COC(=O)c1ccc(S(=O)(=O)N(Cc2ccc(F)c(C(F)(F)F)c2)c2sc3ccccc3c2C2CCC2)cc1 [Compound 696, N-(3-Cyclobutyl-benzo[b]thiophen-2-yl)-N-(4-fluoro-3-trifluoromethyl-benzyl)-4-carbomethoxy-benzenesulfonamide]	7.64	97
O=S(=O)(CC(F)(F)F)N(Cc1ccc(F)c(C(F)(F)F)c1)c1cc2ccccc2s1 [Compound 697, N-(Benzo[b]thiophen-2-yl)-N-(4-fluoro-3-trifluoromethyl-benzyl)-2,2,2-trifluoro-ethanesulfonamide]	7.19	92
O=C(O)c1ccc(S(=O)(=O)N(Cc2ccc(F)c(C(F)(F)F)c2)c2sc3ccccc3c2C2CCC2)cc1 [Compound 698, N-(3-Cyclobutyl-benzo[b]thiophen-2-yl)-N-(4-fluoro-3-trifluoromethyl-benzyl)-4-carboxy-benzenesulfonamide]	8.70	102
Cc1c(N(Cc2ccc(F)c(C(F)(F)F)c2)S(=O)(=O)CCCO)sc2ccccc12 [Compound 699, N-(4-Fluoro-3-trifluoromethyl-benzyl)-N-(3-methyl-benzo[b]thiophen-2-yl)-3-hydroxy-propanesulfonamide]	8.22	103
